# Test results reported in PubChem BioAssay (NCI).
#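 These data come from cells grown in 96-well plates and exposed to compound for 48 hours at five concentrations. TGI is the concentration that stops growth completely.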
# Legend:
# Assay in all cases: NCI anticancer screen, dose series, 48 h
# 786-0 renal = tested on: 786-0 renal
# A498 renal = tested on: A498 renal
# A549 NSCLC = tested on: A549 NSCLC
# ACHN renal = tested on: ACHN renal
# CAKI-1 renal = tested on: CAKI-1 renal
# CCRF-CEM leukemia = tested on: CCRF-CEM leukemia
# COLO 205 colon = tested on: COLO 205 colon
# DU-145 prostate = tested on: DU-145 prostate
# EKVX NSCLC = tested on: EKVX NSCLC
# HCC-2998 colon = tested on: HCC-2998 colon
# HCT-116 colon = tested on: HCT-116 colon
# HCT-15 colon = tested on: HCT-15 colon
# HL-60(TB) leukemia = tested on: HL-60(TB) leukemia
# HOP-62 NSCLC = tested on: HOP-62 NSCLC
# HOP-92 NSCLC = tested on: HOP-92 NSCLC
# HS 578T breast = tested on: HS 578T breast
# HT29 colon = tested on: HT29 colon
# IGROV1 ovarian = tested on: IGROV1 ovarian
# K-562 leukemia = tested on: K-562 leukemia
# KM12 colon = tested on: KM12 colon
# LOX IMVI melanoma = tested on: LOX IMVI melanoma
# M14 melanoma = tested on: M14 melanoma
# MALME-3M melanoma = tested on: MALME-3M melanoma
# MCF7 breast = tested on: MCF7 breast
# MDA-MB-231 breast = tested on: MDA-MB-231 breast
# MDA-MB-435 = tested on: MDA-MB-435
# MDA-N = tested on: MDA-N
# MOLT-4 leukemia = tested on: MOLT-4 leukemia
# NCI-H226 lung = tested on: NCI-H226 lung
# NCI-H23 lung = tested on: NCI-H23 lung
# NCI-H460 lung = tested on: NCI-H460 lung
# NCI/ADR-RES ovarian = tested on: NCI/ADR-RES ovarian
# OVCAR-3 ovarian = tested on: OVCAR-3 ovarian
# OVCAR-4 ovarian = tested on: OVCAR-4 ovarian
# OVCAR-5 ovarian = tested on: OVCAR-5 ovarian
# OVCAR-8 ovarian = tested on: OVCAR-8 ovarian
# PC-3 prostate = tested on: PC-3 prostate
# RPMI-8226 leukemia = tested on: RPMI-8226 leukemia
# RXF 393 renal = tested on: RXF 393 renal
# SF-268 CNS = tested on: SF-268 CNS
# SF-295 CNS = tested on: SF-295 CNS
# SF-539 CNS = tested on: SF-539 CNS
# SK-MEL-28 melanoma = tested on: SK-MEL-28 melanoma
# SK-MEL-5 melanoma = tested on: SK-MEL-5 melanoma
# SK-OV-3 ovarian = tested on: SK-OV-3 ovarian
# SN12C renal = tested on: SN12C renal
# SNB-19 CNS = tested on: SNB-19 CNS
# SNB-75 CNS = tested on: SNB-75 CNS
# SR leukemia = tested on: SR leukemia
# SW-620 colon = tested on: SW-620 colon
# T-47D breast = tested on: T-47D breast
# TK-10 renal = tested on: TK-10 renal
# U251 CNS = tested on: U251 CNS
# UACC-257 melanoma = tested on: UACC-257 melanoma
# UACC-62 melanoma = tested on: UACC-62 melanoma
# UO-31 renal = tested on: UO-31 renal
# NCI-H522 lung = tested on: NCI-H522 lung
# SK-MEL-2 melanoma = tested on: SK-MEL-2 melanoma
smiles,measurement,setting,value
CCOC(=O)NC(Nc1ncn(C(NC(=O)OCC)(C(F)(F)F)C(F)(F)F)n1)(C(F)(F)F)C(F)(F)F,TGI,786-0 renal,> 100 µM
same,TGI,A498 renal,> 100 µM
same,TGI,A549 NSCLC,> 100 µM
same,TGI,ACHN renal,> 100 µM
same,TGI,CAKI-1 renal,> 100 µM
same,TGI,CCRF-CEM leukemia,> 100 µM
same,TGI,COLO 205 colon,> 100 µM
same,TGI,DU-145 prostate,> 100 µM
same,TGI,EKVX NSCLC,> 100 µM
same,TGI,HCC-2998 colon,> 100 µM
same,TGI,HCT-116 colon,> 100 µM
same,TGI,HCT-15 colon,> 100 µM
same,TGI,HL-60(TB) leukemia,> 100 µM
same,TGI,HOP-62 NSCLC,> 100 µM
same,TGI,HOP-92 NSCLC,> 100 µM
same,TGI,HS 578T breast,> 100 µM
same,TGI,HT29 colon,> 100 µM
same,TGI,IGROV1 ovarian,> 100 µM
same,TGI,K-562 leukemia,> 100 µM
same,TGI,KM12 colon,> 100 µM
same,TGI,LOX IMVI melanoma,> 100 µM
same,TGI,M14 melanoma,> 100 µM
same,TGI,MALME-3M melanoma,> 100 µM
same,TGI,MCF7 breast,> 100 µM
same,TGI,MDA-MB-231 breast,> 100 µM
same,TGI,MDA-MB-435,> 100 µM
same,TGI,MDA-N,> 100 µM
same,TGI,MOLT-4 leukemia,> 100 µM
same,TGI,NCI-H226 lung,> 100 µM
same,TGI,NCI-H23 lung,> 100 µM
same,TGI,NCI-H460 lung,> 100 µM
same,TGI,NCI/ADR-RES ovarian,> 100 µM
same,TGI,OVCAR-3 ovarian,> 100 µM
same,TGI,OVCAR-4 ovarian,> 100 µM
same,TGI,OVCAR-5 ovarian,> 100 µM
same,TGI,OVCAR-8 ovarian,> 100 µM
same,TGI,PC-3 prostate,> 100 µM
same,TGI,RPMI-8226 leukemia,> 100 µM
same,TGI,RXF 393 renal,> 100 µM
same,TGI,SF-268 CNS,> 100 µM
same,TGI,SF-295 CNS,> 100 µM
same,TGI,SF-539 CNS,> 100 µM
same,TGI,SK-MEL-28 melanoma,> 100 µM
same,TGI,SK-MEL-5 melanoma,> 100 µM
same,TGI,SK-OV-3 ovarian,> 100 µM
same,TGI,SN12C renal,> 100 µM
same,TGI,SNB-19 CNS,> 100 µM
same,TGI,SNB-75 CNS,> 100 µM
same,TGI,SR leukemia,> 100 µM
same,TGI,SW-620 colon,> 100 µM
same,TGI,T-47D breast,> 100 µM
same,TGI,TK-10 renal,> 100 µM
same,TGI,U251 CNS,> 100 µM
same,TGI,UACC-257 melanoma,> 100 µM
same,TGI,UACC-62 melanoma,> 100 µM
same,TGI,UO-31 renal,30.3 µM
CC(=O)c1sc2c(c1OC(=O)c1ccc(Cl)cc1Cl)c(=O)n(-c1ccccc1)c(=S)n2-c1ccccc1,TGI,786-0 renal,29.6 µM
same,TGI,A498 renal,1.4 µM
same,TGI,A549 NSCLC,> 90 µM
same,TGI,ACHN renal,5.21 µM
same,TGI,CAKI-1 renal,25.7 µM
same,TGI,CCRF-CEM leukemia,4.99 µM
same,TGI,COLO 205 colon,15 µM
same,TGI,DU-145 prostate,> 100 µM
same,TGI,EKVX NSCLC,49.7 µM
same,TGI,HCC-2998 colon,22.2 µM
same,TGI,HCT-116 colon,37.5 µM
same,TGI,HCT-15 colon,11.2 µM
same,TGI,HL-60(TB) leukemia,18.9 µM
same,TGI,HOP-62 NSCLC,16.7 µM
same,TGI,HOP-92 NSCLC,16.5 µM
same,TGI,HS 578T breast,1.4 µM
same,TGI,HT29 colon,3.01 µM
same,TGI,IGROV1 ovarian,36.1 µM
same,TGI,K-562 leukemia,46.1 µM
same,TGI,KM12 colon,27 µM
same,TGI,LOX IMVI melanoma,1.19 µM
same,TGI,M14 melanoma,2.35 µM
same,TGI,MALME-3M melanoma,0.841 µM
same,TGI,MCF7 breast,47.1 µM
same,TGI,MDA-MB-231 breast,11.7 µM
same,TGI,MDA-MB-435,31.9 µM
same,TGI,MDA-N,20 µM
same,TGI,MOLT-4 leukemia,2.35 µM
same,TGI,NCI-H226 lung,2.53 µM
same,TGI,NCI-H23 lung,35.3 µM
same,TGI,NCI-H460 lung,14.3 µM
same,TGI,NCI-H522 lung,15.1 µM
same,TGI,NCI/ADR-RES ovarian,20.2 µM
same,TGI,OVCAR-3 ovarian,39 µM
same,TGI,OVCAR-4 ovarian,54 µM
same,TGI,OVCAR-5 ovarian,8.96 µM
same,TGI,OVCAR-8 ovarian,5.73 µM
same,TGI,PC-3 prostate,13.7 µM
same,TGI,RPMI-8226 leukemia,0.64 µM
same,TGI,SF-268 CNS,13.7 µM
same,TGI,SF-295 CNS,6.51 µM
same,TGI,SF-539 CNS,0.908 µM
same,TGI,SK-MEL-2 melanoma,1.41 µM
same,TGI,SK-MEL-28 melanoma,> 48.1 µM
same,TGI,SK-MEL-5 melanoma,7.17 µM
same,TGI,SK-OV-3 ovarian,7.77 µM
same,TGI,SN12C renal,4.35 µM
same,TGI,SNB-19 CNS,14.2 µM
same,TGI,SNB-75 CNS,4.19 µM
same,TGI,SR leukemia,> 100 µM
same,TGI,SW-620 colon,48.2 µM
same,TGI,T-47D breast,82.3 µM
same,TGI,TK-10 renal,58.2 µM
same,TGI,U251 CNS,25.6 µM
same,TGI,UACC-257 melanoma,30 µM
same,TGI,UACC-62 melanoma,29.2 µM
same,TGI,UO-31 renal,4.48 µM
CCCCc1ccc(-n2c(C)c(COC(=O)NC)c(COC(=O)NC)c2C)cc1,TGI,786-0 renal,16 µM
same,TGI,A498 renal,2.6 µM
same,TGI,A549 NSCLC,19.6 µM
same,TGI,ACHN renal,7.22 µM
same,TGI,CAKI-1 renal,15.9 µM
same,TGI,CCRF-CEM leukemia,18.4 µM
same,TGI,COLO 205 colon,19.6 µM
same,TGI,DU-145 prostate,26.3 µM
same,TGI,EKVX NSCLC,27.8 µM
same,TGI,HCC-2998 colon,30.7 µM
same,TGI,HCT-116 colon,17.8 µM
same,TGI,HCT-15 colon,20.9 µM
same,TGI,HL-60(TB) leukemia,24.4 µM
same,TGI,HOP-62 NSCLC,21.6 µM
same,TGI,HOP-92 NSCLC,11.5 µM
same,TGI,HS 578T breast,45.9 µM
same,TGI,HT29 colon,24.9 µM
same,TGI,K-562 leukemia,> 100 µM
same,TGI,KM12 colon,29.3 µM
same,TGI,LOX IMVI melanoma,18.4 µM
same,TGI,M14 melanoma,24.5 µM
same,TGI,MALME-3M melanoma,22 µM
same,TGI,MCF7 breast,19.3 µM
same,TGI,MDA-MB-231 breast,17.8 µM
same,TGI,MDA-MB-435,28.1 µM
same,TGI,MDA-N,31.3 µM
same,TGI,NCI-H226 lung,2.85 µM
same,TGI,NCI-H23 lung,26.4 µM
same,TGI,NCI-H460 lung,18 µM
same,TGI,NCI-H522 lung,9.3 µM
same,TGI,NCI/ADR-RES ovarian,27.4 µM
same,TGI,OVCAR-3 ovarian,24.5 µM
same,TGI,OVCAR-5 ovarian,17.1 µM
same,TGI,OVCAR-8 ovarian,16.5 µM
same,TGI,PC-3 prostate,32 µM
same,TGI,RPMI-8226 leukemia,19.8 µM
same,TGI,RXF 393 renal,9.8 µM
same,TGI,SF-268 CNS,20.3 µM
same,TGI,SF-295 CNS,24.4 µM
same,TGI,SF-539 CNS,15.9 µM
same,TGI,SK-MEL-28 melanoma,33.8 µM
same,TGI,SK-MEL-5 melanoma,23.5 µM
same,TGI,SK-OV-3 ovarian,14.1 µM
same,TGI,SN12C renal,14.5 µM
same,TGI,SNB-19 CNS,30.4 µM
same,TGI,SNB-75 CNS,19.4 µM
same,TGI,SR leukemia,17.2 µM
same,TGI,SW-620 colon,21.4 µM
same,TGI,T-47D breast,27 µM
same,TGI,TK-10 renal,12.4 µM
same,TGI,U251 CNS,17.4 µM
same,TGI,UACC-257 melanoma,24 µM
same,TGI,UACC-62 melanoma,10.5 µM
same,TGI,UO-31 renal,10.6 µM
